These results are taken from patent US7846719B2, “Express system of soluble glutaminyl cyclase” (Academia Sinica, priority 2006, dated 2010).

Where two headings read alike, the source gives them in different places. Peptide text beside a SMILES is read from it.

By Km is commonly meant the substrate concentration at which the rate is half of its maximum. As a reminder, the kcat is the maximal rate divided by the concentration of active sites.

The target of data set [1] is T1, Human QC (Homo sapiens, UniProt Q16769). Kind of data set: QC inhibition test, spectrophotometric, 96-well microplate. The format is biochemical. Details: corresponding to the coding region of human QC (Ala33-Leu361) was re-amplified and inserted into a pET-43.1a expression vector; Nus fusion (pET-43.1a construct) or thioredoxin fusion (pET-32a construct) (N, cleaved yes); (His)6 (pET-43.1a construct: N- and C-terminal sites; pET-32a construct: 5'-end, upstream of the Factor Xa site); made in house; host or cells: E. coli BL21 (DE3). To be noted: inhibitor 140 μM, substrate H-Gln-Gln-OH 0.55 mM, human QC 28.8 nM, preincubation 5 to 10 min; for remaining activity at 140 µM: read-out: QC activity (% of control). As for the experimental part: Reactions were started by the addition of QC (0.04 to 2.5 μg), and the activity was monitored by recording the decrease of NADH absorbance at 340 nm.
For an inhibition test, the reaction composition was the same as described above, except for the addition of the inhibitor compound. Prior to the spectrophotometric analysis on a 96-well microplate, the enzyme was incubated with the inhibitor for 5 to 10 min.
Target sequence in this assay (Q16769 33-361): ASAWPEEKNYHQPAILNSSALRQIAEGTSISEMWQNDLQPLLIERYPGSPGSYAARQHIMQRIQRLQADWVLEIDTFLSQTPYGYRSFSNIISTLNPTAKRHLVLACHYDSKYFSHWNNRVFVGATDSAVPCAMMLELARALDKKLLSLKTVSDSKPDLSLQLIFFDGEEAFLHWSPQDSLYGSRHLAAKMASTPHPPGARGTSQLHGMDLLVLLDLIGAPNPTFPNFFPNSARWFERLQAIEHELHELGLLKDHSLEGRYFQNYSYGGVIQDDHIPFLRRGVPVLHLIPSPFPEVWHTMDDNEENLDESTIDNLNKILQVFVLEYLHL

The target in data set [2] is T1, Human QC. Put plainly: QC activity analysis by reverse-phase HPLC on [Gln1]-TRH. The data set is classed as biochemical. Also noted: corresponding to the coding region of human QC (Ala33-Leu361) was re-amplified and inserted into a pET-43.1a expression vector; Nus fusion (pET-43.1a construct) or thioredoxin fusion (pET-32a construct) (N, cleaved yes); (His)6 (pET-43.1a construct: N- and C-terminal sites; pET-32a construct: 5'-end, upstream of the Factor Xa site); made in house; host or cells: E. coli BL21 (DE3). The following applies: 50 mM Tris-HCl. Here is the method: QC activity was analyzed based on reverse-phase HPLC and spectrophotometric measurement. […] A reaction without addition of human QC was provided as a control in the assay. Subsequently, a 20 μl aliquot of the mixture was subjected to HPLC analysis on a Waters liquid chromatograph using a C18 column (Waters, Milford, Mass.). The bound materials were eluted by a three-step linear gradient of methanol containing 0.1% trifluoroacetic acid (TFA). The eluates were detected at 214 nm and identified by mass spectrometry and N-terminal sequencing.
The synthetic [Gln^1]-TRH (Gln-His-Pro), one of the putative physiological substrates of human QC, was used to analyze the QC activity of the recombinant protein based on the HPLC elution profile of the peptide.
Target sequence in this assay (Q16769 33-361): as above

The target of data set [3] is T1, Human QC. Also noted: host or cells: Pichia pastoris. The following applies: substrate of human QC expressed in Pichia pastoris cell; reported by Schilling et al.; cited from earlier work.
Target sequence in this assay (Q16769 29-361): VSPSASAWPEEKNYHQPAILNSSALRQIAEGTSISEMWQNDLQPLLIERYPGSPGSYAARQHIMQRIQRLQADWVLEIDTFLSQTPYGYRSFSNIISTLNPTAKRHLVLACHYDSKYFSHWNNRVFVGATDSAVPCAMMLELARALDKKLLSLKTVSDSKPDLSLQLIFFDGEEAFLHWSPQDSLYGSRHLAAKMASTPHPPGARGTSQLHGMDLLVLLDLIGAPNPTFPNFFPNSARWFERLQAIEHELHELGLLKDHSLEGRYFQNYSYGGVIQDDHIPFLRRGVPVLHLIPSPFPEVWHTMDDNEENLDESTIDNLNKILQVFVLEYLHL
Data set [4] deals with T1, Human QC. Also noted: host or cells: Pichia pastoris. The following applies: substrate of human QC expressed in Drosophila S2 cell; reported by Booth et al.; cited from earlier work.
Target sequence in this assay (Q16769 29-361): as above
In data set [5] the target is T1, Human QC. Put plainly: Spectrophotometric QC activity assay (glutamate dehydrogenase coupled), human QC expressed in E. coli. The format is biochemical. Also noted: corresponding to the coding region of human QC (Ala33-Leu361) was re-amplified and inserted into a pET-43.1a expression vector; Nus fusion (pET-43.1a construct) or thioredoxin fusion (pET-32a construct) (N, cleaved yes); (His)6 (pET-43.1a construct: N- and C-terminal sites; pET-32a construct: 5'-end, upstream of the Factor Xa site); made in house; host or cells: E. coli BL21 (DE3). To be noted: substrate of human QC expressed in Escherichia coli cell, mean ± SD (n = 2). Here is the method: For the spectrophotometric method, the 500 μl assay solutions consisted of 15 units glutamate dehydrogenase, 12 mM α-ketoglutarate, 0.6 mM NADH (a reduced form of NAD (nicotinamide adenine dinucleotide)) and varying concentrations of synthetic substrate in 50 mM Tris-HCl, pH 8.0. Reactions were started by the addition of QC (0.04 to 2.5 μg), and the activity was monitored by recording the decrease of NADH absorbance at 340 nm.
The Km and kcat values determined for the recombinant protein of the invention were very similar to the human QC expressed in Drosophila S2 cells, as evident in Table 1.
Target sequence in this assay (Q16769 33-361): as the sequence (Q16769 33-361) above

For the molecule `CSc1nnn[nH]1` [5-(methylthio)-1H-tetrazole], the remaining activity at 140 µM at Human QC [1] came out at 89.1%.

Take `c1ccc(Cn2ccnc2)cc1` [1-benzylimidazole]: the remaining activity at 140 µM at Human QC [1] turned out to be 41.5%.

Take `Nc1nc[nH]n1` [3-amino-1,2,4-triazole]: the remaining activity at 140 µM on Human QC [1] is 84.5%.

[Gln^1]-TRH (Gln-His-Pro): the “Turnover in the absence of human QC” value at Human QC [2] (5 days, pH 8.0, at 25° C., no enzyme) was “less than 20%”. Moreover, at Human QC [2] (within 20 minutes, 0.6 μM human QC, 14.8 mM substrate, pH 8.0, 25° C.), the “Conversion into [pGlu1]-TRH by human QC” value is recorded as “almost completely converted”.

With `O=c1[nH][nH]c(=O)n1-c1ccccc1` [4-phenyl-1,2,4-triazoleine-3,5-dione], the remaining activity at 140 µM on Human QC [1] stood at 78.2%.

As for `c1ccc(N=c2[n-][n+](-c3ccccc3)cn2-c2ccccc2)cc1` [nitron], at Human QC [1], the “QC activity (% of control)” value is 61.4 % of control.

With `Nc1n[nH]c(N)n1` [3,5-diamino-1,2,4-triazole], the remaining activity at 140 µM on Human QC [1] is 89.9%.

With `CCOC(=O)Cc1nnn[nH]1` [ethyl 1H-tetrazole-5-acetate], the remaining activity at 140 µM at Human QC [1] was 90.6%.

`NC(=O)CC[C@H](NC(=O)[C@@H](N)CCC(N)=O)C(=O)O` [Gln-Gln, H-Gln-Gln-OH] (H-Gln-Gln-OH): the Km is 100 µM on Human QC [3] and 0.7 ± 0.4 mM on Human QC [4]. Further, the kcat is 20.7 ± 0.2 s⁻¹ on Human QC [3] and 10.0 s⁻¹ on Human QC [4].

Turning to `CC(C)(C)OC(=O)[C@@H](N)CCC(N)=O` [Gln-t-butyl ester, H-Gln-t-butyl ester], the Km on Human QC [3] was 1200 ± 100 µM; on Human QC [4] it was 6.7 ± 2 mM; at Human QC [5] (50 mM Tris-HCl, pH 8.0), 4.1 ± 0.6 mM. Further, the kcat was 6.7 ± 0.2 s⁻¹ at Human QC [3], 16.0 s⁻¹ at Human QC [4] and 20.9 ± 2.1 s⁻¹ on Human QC [5].
